1 molecule from PMC6233161, “The anti-tumor diterpene oridonin is a direct inhibitor of Nucleolin in cancer cells” (Scientific Reports, 2018) can be followed below.

The target of one test is T1, HSP70 (Homo sapiens, UniProt P0DMV8).
T1 construct: gene HSPA1A
In words: DARTS in Jurkat lysate and living cells at […] (MS and western blot); pull-down with immobilized oridonin. The test is classed as cell-based.

For a further test, the target named is T2, Nucleolin (Homo sapiens, UniProt P19338).
T2 construct: gene NCL; Recombinant human Nucleolin
As to the kind of experiment: SPR (Biacore […], immobilized Nucleolin on CM5 chip); supported by CETSA, DARTS and affinity pull-down. The test is classed as binding. A general note: SPR reads the build-up and loss of mass on a sensor chip optically.

T2 sequence (P19338 2-710): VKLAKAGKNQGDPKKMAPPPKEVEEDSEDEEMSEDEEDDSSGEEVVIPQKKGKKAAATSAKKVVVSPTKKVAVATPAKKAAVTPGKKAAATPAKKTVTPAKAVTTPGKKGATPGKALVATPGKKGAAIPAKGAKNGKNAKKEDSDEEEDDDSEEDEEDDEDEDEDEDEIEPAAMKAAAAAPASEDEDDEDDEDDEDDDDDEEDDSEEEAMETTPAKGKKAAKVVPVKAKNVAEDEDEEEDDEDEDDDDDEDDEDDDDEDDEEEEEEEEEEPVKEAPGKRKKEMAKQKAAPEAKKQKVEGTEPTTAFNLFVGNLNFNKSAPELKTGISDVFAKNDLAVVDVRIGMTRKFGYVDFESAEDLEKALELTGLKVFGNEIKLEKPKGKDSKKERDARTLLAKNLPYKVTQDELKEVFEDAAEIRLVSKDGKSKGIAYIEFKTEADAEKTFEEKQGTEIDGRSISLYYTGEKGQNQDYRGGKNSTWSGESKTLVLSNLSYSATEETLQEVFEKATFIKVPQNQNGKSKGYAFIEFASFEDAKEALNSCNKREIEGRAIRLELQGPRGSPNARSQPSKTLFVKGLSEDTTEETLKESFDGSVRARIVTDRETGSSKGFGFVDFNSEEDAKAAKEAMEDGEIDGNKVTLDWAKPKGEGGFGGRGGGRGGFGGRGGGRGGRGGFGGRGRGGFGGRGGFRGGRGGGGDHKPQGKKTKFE
T1 sequence (P0DMV8 2-641): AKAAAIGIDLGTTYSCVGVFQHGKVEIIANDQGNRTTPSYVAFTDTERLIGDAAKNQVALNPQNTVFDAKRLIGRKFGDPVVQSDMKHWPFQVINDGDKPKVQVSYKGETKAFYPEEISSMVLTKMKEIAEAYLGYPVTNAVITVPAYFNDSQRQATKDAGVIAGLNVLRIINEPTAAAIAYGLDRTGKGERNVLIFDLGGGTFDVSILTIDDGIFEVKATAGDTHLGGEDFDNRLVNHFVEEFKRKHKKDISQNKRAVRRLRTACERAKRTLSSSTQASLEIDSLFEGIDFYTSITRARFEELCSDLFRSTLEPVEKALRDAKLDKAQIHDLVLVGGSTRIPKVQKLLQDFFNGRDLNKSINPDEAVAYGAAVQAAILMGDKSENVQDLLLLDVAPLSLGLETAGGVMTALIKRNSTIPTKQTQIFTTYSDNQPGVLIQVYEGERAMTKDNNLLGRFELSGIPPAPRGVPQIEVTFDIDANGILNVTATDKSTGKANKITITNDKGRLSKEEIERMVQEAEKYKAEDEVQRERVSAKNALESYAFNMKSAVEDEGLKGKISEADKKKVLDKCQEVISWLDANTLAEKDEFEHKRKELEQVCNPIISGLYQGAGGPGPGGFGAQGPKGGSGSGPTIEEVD

What is called Kd is a measure of binding affinity in units of concentration. Read a high Kd as weaker binding. As to `C=C1C(=O)[C@]23[C@H](O)[C@H]1CC[C@H]2[C@@]12CO[C@]3(O)[C@@H](O)[C@@H]1C(C)(C)CC[C@@H]2O` [oridonin], the “DARTS in Jurkat lysate and living cells at 5 μM (MS and western blot); pull-down” value on HSP70 is “only three proteins emerged as putative oridonin targets: HSP70, HSP90, and Nucleolin”. On Nucleolin, this molecule had a Kd of 3.8 ± 1.2 nM.
